According to patent US20080227713A1, “Oxidized Human Bnp” (priority 2005, published 2008):
Marks after values point to notes of the source that are not given here.

Assays:
[1] = tested on: plasma cyclic GMP; experiment: Plasma cyclic GMP during dose-escalating continuous intravenous infusion in conscious rabbits; assay type: in vivo; details: rabbit; for Mean Plasma Cyclic GMP ± SD: n = 6
From the text: (§1) New Zealand White male rabbits (R & R Rabbitry, WA) weighing 2.5 to 3.0 kg, were used in the study. Upon receipt, the animals were allowed a 1-week acclimation period at the animal facility to ensure proper health status prior to the study. On the day of the study, the rabbits were weighed and placed in an open top plexiglass restrainers with adjustable plexiglass and nylon covers. The ears were shaved, 2% Lidocaine HCl (Xylocalne jelly, Astra, Westborough, Mass.) was applied topically on the surface of the ears, and IV catheters (Angiocath, Becton Dickinson, Utah) fitted with heparin locks were inserted into the intermedial branch of the peripheral ear vein for drug administration and into the central ear artery for repeated blood sampling.
(§2) Blood samples were drawn 20 minutes prior to and 0, 50, 55, 60, 110, 115, 120, 170, 175, and 180 minutes following initiation of the infusion. […] Blood samples were taken at 20 minutes prior to dosing, immediately prior to dosing and 5, 10, 15, 30, 60, and 90 minutes after dosing. Blood samples (3 mL) was drawn at each time point and the volume replaced with an equal volume of 0.9% NaCl. Blood was collected into EDTA coated tubes containing aprotinin (150 kallikrein inhibitory units/tube) and centrifuged immediately.
(§3) Plasma cyclic GMP levels were determined by radioimmunoassay (DuPont, Boston, Mass.). […] Separation of the bound from free antigen was performed using a pre-reacted primary and secondary antibody complex. Prior to the assay, the plasma samples were extracted with ethanol and the supernate evaporated to dryness in a speed vac concentrator (Savant Instruments, Holbrook, N.Y.). The dried samples were reconstituted with sodium acetate buffer. Plasma cyclic GMP levels were determined by interpolation from the standard curve (0.01 to 10 pmol/mL).

[2] = Plasma peptide levels (EIA) during dose-escalating continuous intravenous infusion in conscious rabbits; assay type: in vivo; details: rabbit; for Plasma steady state concentration: n = 6
From the text: as §1, §2
(§4) The plasma samples were diluted appropriately with pooled normal rabbit plasma prior to assay. […] Levels of the biotinylated probe were measured by using a sensitive enzyme based detection system, avidin-HRP, and a […] that provided a colorimetric endpoint.

[3] = Plasma peptide levels (EIA) after a single intravenous bolus in conscious rabbits; details: male, New Zealand White, in vivo, 30 ug/kg, rabbit, single iv bolus 30 μg/kg, n = 4
From the text: as §1, §2, §4

[4] = tested on: plasma cyclic GMP; experiment: Plasma cyclic GMP after a single intravenous bolus in conscious rabbits; assay type: in vivo; details: rabbit, single iv bolus 30 μg/kg, n = 4
From the text: as §1, §2, §3

In the case of CC[C@H](C)[C@@H]1NC(=O)[C@H](CCCNC(=N)N)NC(=O)[C@H](CC(=O)O)NC(=O)[C@H](CCSC)NC(=O)[C@H](CCCCN)NC(=O)[C@H](CCCNC(=N)N)NC(=O)CNC(=O)[C@H](Cc2ccccc2)NC(=O)[C@@H](NC(=O)CNC(=O)[C@H](CO)NC(=O)CNC(=O)[C@H](CCC(N)=O)NC(=O)[C@@H](NC(=O)[C@H](CCSC)NC(=O)[C@H](CCCCN)NC(=O)[C@@H]2CCCN2C(=O)[C@@H](N)CO)C(C)C)CSSC[C@@H](C(=O)N[C@@H](CCCCN)C(=O)N[C@H](C(=O)N[C@@H](CC(C)C)C(=O)N[C@@H](CCCNC(=N)N)C(=O)N[C@@H](CCCNC(=N)N)C(=O)N[C@@H](Cc2c[nH]cn2)C(=O)O)C(C)C)NC(=O)CNC(=O)[C@H](CC(C)C)NC(=O)CNC(=O)[C@H](CO)NC(=O)[C@H](CO)NC(=O)[C@H](CO)NC(=O)[C@H](CO)NC1=O [hBNP, Ser^1-Pro^2-Lys^3-Met^4-Val^5-Gln^6-Gly^7-Ser^8-Gly^9-Cys^10-Phe^11-Gly^12-Arg^13-Lys^14-Met^15-Asp^16-Arg^17-Ile^18-Ser^19-Ser^20-Ser^21-Ser^22-Gly^23-Leu^24-Gly^25-Cys^26-Lys^27-Val^28-Leu^29-Arg^30-Lys^31-His^32], the “Mean Plasma Cyclic GMP ± SD” value ([1]; 0 μg/kg/min (saline), 0 min) is reported as 30 ± 16 pmol/mL, the “Mean Plasma Cyclic GMP ± SD” value ([1]; 0 μg/kg/min (saline), −20 min) is reported as 34 ± 15 pmol/mL and the “Change of plasma cyclic GMP during continuous infusion” value ([1]; 0.05, 0.1, 0.2 μg/kg/min, in words) is reported as “dose-related increase in plasma cyclic GMP”. The “Mean Plasma Cyclic GMP ± SD” value ([1]; iv infusion 0.05 μg/kg/min, 50 min) was 68 ± 33 pmol/mL, the “Mean Plasma Cyclic GMP ± SD” value ([1]; iv infusion 0.05 μg/kg/min, 55 min) was 87 ± 29 pmol/mL and the “Mean Plasma Cyclic GMP ± SD” value ([1]; iv infusion 0.05 μg/kg/min, 60 min) was 92 ± 34 pmol/mL. The “Mean Plasma Cyclic GMP ± SD” value ([1]; iv infusion 0.1 μg/kg/min, 110 min) was 131 ± 38 pmol/mL, the “Mean Plasma Cyclic GMP ± SD” value ([1]; iv infusion 0.1 μg/kg/min, 115 min) was 122 ± 35 pmol/mL and the “Mean Plasma Cyclic GMP ± SD” value ([1]; iv infusion 0.1 μg/kg/min, 120 min) was 125 ± 27 pmol/mL. The “Mean Plasma Cyclic GMP ± SD” value ([1]; iv infusion 0.2 μg/kg/min, 170 min) was 159 ± 37 pmol/mL, the “Mean Plasma Cyclic GMP ± SD” value ([1]; iv infusion 0.2 μg/kg/min, 175 min) was 170 ± 43 pmol/mL and the “Mean Plasma Cyclic GMP ± SD” value ([1]; iv infusion 0.2 μg/kg/min, 180 min) was 145 ± 31 pmol/mL. It also gave a level at 50 min ([2]; male, New Zealand White, plasma, 0.05 ug/kg/min, iv infusion 0.05 μg/kg/min, 50 min, N = 6) of 1.39 ng/mL, a level at 55 min ([2]; male, New Zealand White, plasma, 0.05 ug/kg/min, iv infusion 0.05 μg/kg/min, 55 min, N = 6) of 1.28 ng/mL and a level at 1 h ([2]; male, New Zealand White, plasma, 0.05 ug/kg/min, iv infusion 0.05 μg/kg/min, 60 min, N = 6) of 1.29 ng/mL. It also gave a level at 110 min ([2]; male, New Zealand White, plasma, 0.1 ug/kg/min, iv infusion 0.1 μg/kg/min, 110 min, N = 6) of 3.85 ng/mL, a level at 115 min ([2]; male, New Zealand White, plasma, 0.1 ug/kg/min, iv infusion 0.1 μg/kg/min, 115 min, N = 6) of 3.7 ng/mL and a level at 2 h ([2]; male, New Zealand White, plasma, 0.1 ug/kg/min, iv infusion 0.1 μg/kg/min, 120 min, N = 6) of 2.75 ng/mL. For the same compound, the level at 170 min ([2]; male, New Zealand White, plasma, 0.2 ug/kg/min, iv infusion 0.2 μg/kg/min, 170 min, N = 6) was 7.4 ng/mL, the level at 175 min ([2]; male, New Zealand White, plasma, 0.2 ug/kg/min, iv infusion 0.2 μg/kg/min, 175 min, N = 6) was 8.07 ng/mL and the level at 3 h ([2]; male, New Zealand White, plasma, 0.2 ug/kg/min, iv infusion 0.2 μg/kg/min, 180 min, N = 6) was 6.59 ng/mL. The level at 0 h ([2]; male, New Zealand White, plasma, iv, 0 ug/kg/min, 0 μg/kg/min (before infusion), 0 min, N = 6) was 0.146 ng/mL, the level at -20 min ([2]; male, New Zealand White, plasma, iv, 0 ug/kg/min, 0 μg/kg/min (before infusion), −20 min, N = 6) was 0.166 ng/mL and the “Plasma steady state concentration” value ([2]; infusion rate 0.05 μg/kg/min) was 1319 ± 615 pg/mL. The “Plasma steady state concentration” value ([2]; infusion rate 0.1 μg/kg/min) was 3434 ± 952 pg/mL, the “Plasma steady state concentration” value ([2]; infusion rate 0.2 μg/kg/min) was 7357 ± 1569 pg/mL and the level at 5 min ([3]; 5 min) was 50.1 ng/mL. For the same compound, the level at 10 min ([3]; 10 min) was 12 ng/mL, the level at […] ([3]; 15 min) was 4.67 ng/mL and the level at 0.5 h ([3]; 30 min) was 1.21 ng/mL. For the same compound, the level at 1 h ([3]; 60 min) was 0.122 ng/mL, the level at […] ([3]; 90 min) was 0.051 ng/mL and the “Plasma Cyclic GMP” value ([4]; 0 min (before dosing)) was 47 pmol/mL. The “Plasma Cyclic GMP” value ([4]; 5 min) was 201* pmol/mL, the “Plasma Cyclic GMP” value ([4]; 10 min) was 214* pmol/mL and the “Plasma Cyclic GMP” value ([4]; 15 min) was 189* pmol/mL. For the same compound, the “Plasma Cyclic GMP” value ([4]; 30 min) was 146 pmol/mL, the “Plasma Cyclic GMP” value ([4]; 60 min) was 65 pmol/mL and the “Plasma Cyclic GMP” value ([4]; 90 min) was 40 pmol/mL. The “Plasma Cyclic GMP” value ([4]; −20 min (before dosing)) was 46 pmol/mL.
